Bounds are passed on as bounds.

Assay type in all cases: cell-based
Experiment [1] addresses T1, 5-HT2A receptor (Homo sapiens, UniProt P28223).
T1 construct: host or cells: HEK293
As to the kind of experiment: FLIPR Ca2+ flux functional assay, agonist activity at 5-HT2A. Particulars: HEK293 cells, Ca2+ flux; for EC50: read-out: 5-HT2A EC50. On the procedure: (§1) Activity at 5-HT2A, 5-HT2B and 5-HT2C receptors was determined using a FLIPR Ca2+ flux assay at WuXi AppTec Co. Ltd. (Hong Kong) Discovery Biology Unit according to their standard protocols. Briefly, stably transfected cells expressing the receptor of interest (HEK293 for 5-HT2A and 5-HT2C; CHO-K1 for 5-HT2B) were grown and plated in a 384 well plate and incubated at 37° C. and 5% CO2 overnight. A 250 mM stock solution of probenecid in FLIPR calcium assay buffer (10 mL) was freshly prepared and combined with a fluorescent dye (Fluo-4 Direct) to give a final assay concentration of 2.5 mM. Reference compounds were 4-fold serially diluted and the screening compounds were 3-fold serially diluted in 100% DMSO for 10 points using Agilent Bravo, and 750 nL was added to a 384 well compound plate using Echo along with 30 μL assay buffer. The fluorescent dye was then added to the assay plate along with assay buffer to a final volume of 40 μL. The cell plate was incubated for 50 min at 37° C. and 5% CO2 and placed into the FLIPR Tetra along with the compound plate. 10 μL of references and compounds were then transferred from the compound plate into the cell plate and the fluorescent signal was read.

Experiment [2] concerns the target T2, 5-HT2C receptor (Homo sapiens, UniProt P28335).
T2 construct: host or cells: HEK293
T2 sequence (P28335 33-458): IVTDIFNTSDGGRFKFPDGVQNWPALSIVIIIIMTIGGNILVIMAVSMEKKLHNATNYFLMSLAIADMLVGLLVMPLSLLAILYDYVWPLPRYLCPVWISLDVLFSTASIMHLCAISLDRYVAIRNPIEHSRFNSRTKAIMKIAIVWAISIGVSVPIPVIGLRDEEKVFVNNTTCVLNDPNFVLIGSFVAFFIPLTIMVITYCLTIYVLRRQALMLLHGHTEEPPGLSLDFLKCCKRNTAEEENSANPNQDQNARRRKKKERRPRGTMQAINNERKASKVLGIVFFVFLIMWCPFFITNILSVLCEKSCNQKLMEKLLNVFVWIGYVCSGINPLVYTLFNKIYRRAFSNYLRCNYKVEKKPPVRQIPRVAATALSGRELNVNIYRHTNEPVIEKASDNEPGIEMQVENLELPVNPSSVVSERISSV
As to the kind of experiment: FLIPR Ca2+ flux functional assay, agonist activity at 5-HT2C. To be noted: HEK293 cells, Ca2+ flux; for EC50: read-out: 5-HT2C EC50. On the procedure:
as §1

The target in experiment [3] is T3, 5-HT2B receptor (Homo sapiens, UniProt P41595).
T3 construct: host or cells: CHO-K1
As to the kind of experiment: FLIPR Ca2+ flux functional assay, agonist activity at 5-HT2B. To be noted: CHO-K1 cells, Ca2+ flux; for EC50: read-out: 5-HT2B EC50. On the procedure:
as §1

T1 sequence (P28223 whole entry): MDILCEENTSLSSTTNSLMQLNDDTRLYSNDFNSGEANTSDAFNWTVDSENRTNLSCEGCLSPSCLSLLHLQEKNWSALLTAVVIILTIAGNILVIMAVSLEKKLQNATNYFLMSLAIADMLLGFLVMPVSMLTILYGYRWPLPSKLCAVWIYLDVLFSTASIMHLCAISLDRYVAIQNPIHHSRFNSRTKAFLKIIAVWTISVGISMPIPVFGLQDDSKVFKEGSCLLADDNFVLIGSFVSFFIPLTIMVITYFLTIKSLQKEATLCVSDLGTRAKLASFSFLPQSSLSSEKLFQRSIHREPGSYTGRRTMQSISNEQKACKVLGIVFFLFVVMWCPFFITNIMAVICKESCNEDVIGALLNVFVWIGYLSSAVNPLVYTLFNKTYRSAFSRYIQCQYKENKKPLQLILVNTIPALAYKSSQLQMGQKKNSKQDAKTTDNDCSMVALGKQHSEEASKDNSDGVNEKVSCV
T3 sequence (P41595 whole entry): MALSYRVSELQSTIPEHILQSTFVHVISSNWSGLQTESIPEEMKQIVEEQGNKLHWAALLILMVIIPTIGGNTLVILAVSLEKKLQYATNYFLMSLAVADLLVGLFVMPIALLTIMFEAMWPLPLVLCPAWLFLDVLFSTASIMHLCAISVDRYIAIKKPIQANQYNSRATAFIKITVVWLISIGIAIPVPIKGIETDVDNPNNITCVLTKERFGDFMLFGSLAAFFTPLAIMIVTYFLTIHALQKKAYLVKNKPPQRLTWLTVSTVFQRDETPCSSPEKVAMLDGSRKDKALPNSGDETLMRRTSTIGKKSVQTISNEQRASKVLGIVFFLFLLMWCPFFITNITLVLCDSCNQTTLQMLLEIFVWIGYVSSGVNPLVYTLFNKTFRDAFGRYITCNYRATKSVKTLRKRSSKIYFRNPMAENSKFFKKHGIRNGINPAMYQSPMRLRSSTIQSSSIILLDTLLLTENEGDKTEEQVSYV

`CCN(C)CCc1c[nH]c2nccc(C)c12` [Example P-31, N-ethyl-N-methyl-2-(4-methyl-1H-pyrrolo[2,3-b]pyridin-3-yl)ethan-1-amine]: the Emax is 54.5% in experiment [1], 0.01% in experiment [2] and 1.01% in experiment [3]. In addition, the 50% effective concentration (EC50) is 1020 nM in experiment [1], > 10000 nM in experiment [2] and > 10000 nM in experiment [3].

Regarding `CN(C)CCc1c[nH]c2nccc(F)c12` [Example P-32, N,N-dimethyl-2-(4-fluoro-1H-pyrrolo[2,3-b]pyridin-3-yl)ethan-1-amine], the Emax amounted to 57.8% in experiment [1], 0.61% in experiment [2] and 0.14% in experiment [3]. Besides, the EC50 in experiment [1] was 414 nM; in experiment [2], > 10000 nM; in experiment [3] it was > 10000 nM.

As to `Cc1cnc2[nH]cc(CCN(C)C)c2c1` [Example P-22, N,N-dimethyl-2-(5-methyl-1H-pyrrolo[2,3-b]pyridin-3-yl)ethan-1-amine], the Emax was determined as 55.5% in experiment [1], 0.27% in experiment [2] and 1.91% in experiment [3]. In addition, the EC50 in experiment [1] is 691 nM; in experiment [2] it was > 10000 nM; in experiment [3] it was > 10000 nM.

Take `COc1cnc2[nH]cc(CCN(C)C(C)C)c2c1` [Example P-21, N-(2-(5-methoxy-1H-pyrrolo[2,3-b]pyridin-3-yl)ethyl)-N-methylpropan-2-amine]: the Emax in experiment [1] is 79.8%; in experiment [2] it was -0.15%; in experiment [3], 4.56%. In addition, the results for the EC50 in experiment [1], in experiment [2] and in experiment [3] were 109 nM, > 10000 nM and > 10000 nM, respectively.

On to `CN(C)CCc1n[nH]c2cccc(O)c12` [Example P-6], for which the EC50 in experiment [2] and in experiment [3] was > 10000 nM in each case.

For the compound `CCN(CC)CCc1n[nH]c2ccc(OC)cc12` [Example P-48, N,N-diethyl-2-(5-methoxy-1H-indazol-3-yl)ethan-1-amine], the values for the EC50 in experiment [1], in experiment [2] and in experiment [3] were 6990 nM, > 10000 nM and > 10000 nM, respectively.

On to `CCN(C)CCc1c[nH]c2ccnc(OC)c12` [Example P-37, N-ethyl-2-(4-methoxy-1H-pyrrolo[3,2-c]pyridin-3-yl)-N-methylethan-1-amine], for which the Emax in experiment [1] is 82.8%; in experiment [2], 105%; in experiment [3], 2.6%. In addition, the half-maximal effective concentration (EC50) in experiment [1] is 86.8 nM; in experiment [2], 533 nM; in experiment [3] it was > 10000 nM.

In the case of `COc1cnc2[nH]cc(CCN(C(C)C)C(C)C)c2c1` [Example P-19, N-isopropyl-N-(2-(5-methoxy-1H-pyrrolo[2,3-b]pyridin-3-yl)ethyl)propan-2-amine], the results for the Emax in experiment [1], in experiment [2] and in experiment [3] were 112%, 0.16% and 13.3%, respectively. The half-maximal effective concentration (EC50) in experiment [1] is 72.9 nM; in experiment [2] it was > 10000 nM; in experiment [3], > 10000 nM.

Consider `CCN(C)CCc1c[nH]c2nccc(F)c12` [Example P-33, N-ethyl-N-methyl-2-(4-fluoro-1H-pyrrolo[2,3-b]pyridin-3-yl)ethan-1-amine], for which the Emax amounted to 54.7% in experiment [1], 0.33% in experiment [2] and 0.01% in experiment [3]. In addition, the half-maximal effective concentration (EC50) in experiment [1] is 641 nM; in experiment [2], > 10000 nM; in experiment [3], > 10000 nM.

For the compound `CCN(C)CCc1n[nH]c2ccc(OC)cc12` [Example P-51, N-ethyl-2-(5-methoxy-1H-indazol-3-yl)-N-methylethan-1-amine], the EC50 in experiment [1] was 526 nM; in experiment [2] it was > 10000 nM; in experiment [3] it was > 10000 nM.

`COc1ccc2[nH]cc(CCN(C)C(C)C)c2n1` [Example P-14, N-(2-(5-methoxy-1H-pyrrolo[3,2-b]pyridin-3-yl)ethyl)-N-methylpropan-2-amine]: the Emax in experiment [1] amounted to 78.9%; in experiment [2], 98.3%; in experiment [3], 1.06%. In addition, the EC50 was 21 nM in experiment [1], 139 nM in experiment [2] and > 10000 nM in experiment [3].

Turning to `COc1nccc2[nH]cc(CCN(C)C(C)C)c12` [Example P-38, N-(2-(4-methoxy-1H-pyrrolo[3,2-c]pyridin-3-yl)ethyl)-N-methylpropan-2-amine], the values for the Emax in experiment [1], in experiment [2] and in experiment [3] were 83.1%, 70.2% and 19.6%, respectively. The concentration for a half-maximal effect (EC50) in experiment [1] is 77.7 nM; in experiment [2], 1920 nM; in experiment [3], 610 nM.

Consider `COc1ccc2[nH]nc(CCN(C)C(C)C)c2c1` [Example P-52, N-(2-(5-methoxy-1H-indazol-3-yl)ethyl)-N-methylpropan-2-amine], for which the EC50 is 1840 nM in experiment [1], > 10000 nM in experiment [2] and > 10000 nM in experiment [3].

For the compound `COc1ccnc2[nH]cc(CCN(C(C)C)C(C)C)c12` [Example P-27, N-isopropyl-N-(2-(4-methoxy-1H-pyrrolo[2,3-b]pyridin-3-yl)ethyl)propan-2-amine], the Emax stood at 80.2% in experiment [1], 0.54% in experiment [2] and 35.6% in experiment [3]. The results for the EC50 in experiment [1], in experiment [2] and in experiment [3] were 857 nM, > 10000 nM and > 10000 nM, respectively.

Regarding `CCCN(CCC)CCc1c[nH]c2ccnc(OC)c12` [Example P-35, N,N-dipropyl-2-(4-methoxy-1H-pyrrolo[3,2-c]pyridin-3-yl)ethan-1-amine], the Emax in experiment [1] amounted to 82.2%; in experiment [2], 55.6%; in experiment [3], 74.7%. Further, the EC50 in experiment [1] is 79 nM; in experiment [2] it was 7180 nM; in experiment [3] it was 78.5 nM.

Turning to `CCN(CC)CCc1c[nH]c2ccnc(OC)c12` [Example P-34, N,N-diethyl-2-(4-methoxy-1H-pyrrolo[3,2-c]pyridin-3-yl)ethan-1-amine], the values for the Emax in experiment [1], in experiment [2] and in experiment [3] were 82.6%, 91.7% and 14.7%, respectively. Also, the figures for the EC50 in experiment [1], in experiment [2] and in experiment [3] were 150 nM, 682 nM and > 10000 nM, respectively.

For the compound `CCCN(CCC)CCc1n[nH]c2cccc(O)c12` [Example P-45, 3-(2-(dipropylamino)ethyl)-1H-indazol-4-ol], the values for the EC50 in experiment [1], in experiment [2] and in experiment [3] were 160 nM, > 10000 nM and > 10000 nM, respectively.

In the case of `COc1cccc2[nH]nc(CCN(C)C)c12` [Example P-55, 2-(4-methoxy-1H-indazol-3-yl)-N,N-dimethylethan-1-amine], the concentration for a half-maximal effect (EC50) was 256 nM in experiment [1], 367 nM in experiment [2] and > 10000 nM in experiment [3].

Regarding `Cc1nccc2[nH]cc(CCN(C)C)c12` [Example P-39], in experiment [1], the Emax is 1.47% and the EC50 was > 10000 nM.

Consider `CCN(C)CCc1c[nH]c2ccnc(C)c12` [Example P-40], for which, in experiment [1], the Emax was 0.75% and the concentration giving a half-maximal response (EC50) was > 10000 nM.

With `COc1nccc2[nH]cc(CCN(C(C)C)C(C)C)c12` [Example P-36, N,N-diisopropyl-2-(4-methoxy-1H-pyrrolo[3,2-c]pyridin-3-yl)ethan-1-amine], the Emax was found to be 114% in experiment [1], 38.4% in experiment [2] and 48.9% in experiment [3]. Also, the concentration giving a half-maximal response (EC50) in experiment [1] is 77.1 nM; in experiment [2] it was > 10000 nM; in experiment [3] it was 96.4 nM.

Regarding `CCN(C)CCc1c[nH]c2ccc(OC)nc12` [Example P-13, N-ethyl-2-(5-methoxy-1H-pyrrolo[3,2-b]pyridin-3-yl)-N-methylethan-1-amine], the Emax in experiment [1] was determined as 79.6%; in experiment [2], 95.8%; in experiment [3] it was 2.25%. Further, the EC50 was 10.1 nM in experiment [1], 31.9 nM in experiment [2] and > 10000 nM in experiment [3].

For `CCN(CC)CCc1c[nH]c2ccc(OC)nc12` [Example P-10, 2-(5-Methoxy-1H-pyrrolo[3,2-b]pyridin-3-yl)-N,N-diethylethan-1-amine], the Emax was found to be 82.8% in experiment [1], 99.1% in experiment [2] and 47.1% in experiment [3]. Besides, the concentration giving a half-maximal response (EC50) in experiment [1] was 6.11 nM; in experiment [2], 68.6 nM; in experiment [3] it was 284 nM.

As for `COc1ccnc2[nH]cc(CCN(C)C(C)C)c12` [Example P-29, N-(2-(4-methoxy-1H-pyrrolo[2,3-b]pyridin-3-yl)ethyl)-N-methylpropan-2-amine], the Emax in experiment [1] is 71.6%; in experiment [2], 0.48%; in experiment [3], 0.59%. Further, the figures for the 50% effective concentration (EC50) in experiment [1], in experiment [2] and in experiment [3] were 555 nM, > 10000 nM and > 10000 nM, respectively.

These data come from patent US20250163044A1, “COMPOUNDS” (PSYLO PTY LTD, priority 2021, published 2025).
